Experimental data as given in patent US20210292315A1, “SELENIUM-CONTAINING ISOXAZOLAMINE COMPOUND, PREPARATION METHOD THEREFOR, AND USE THEREOF” (SHANGHAI XINGYE PHARMACEUTICAL TECHNOLOGY CO., LTD, priority 2018, published 2021).

Legend:
[1] = target: T1, Thioredoxin Reductase 1 (TrxR1) (Homo sapiens, UniProt Q16881); test: Thioredoxin reductase 1 (TrxR1) activity inhibiting assay, NADPH consumption at 340 nm; format: biochemical; conditions: insulin/Trx/NADPH system, absorbance 340 nm; read-out: TrxR inhibition IC50
T1 sequence (Q16881 151-649 limits assumed): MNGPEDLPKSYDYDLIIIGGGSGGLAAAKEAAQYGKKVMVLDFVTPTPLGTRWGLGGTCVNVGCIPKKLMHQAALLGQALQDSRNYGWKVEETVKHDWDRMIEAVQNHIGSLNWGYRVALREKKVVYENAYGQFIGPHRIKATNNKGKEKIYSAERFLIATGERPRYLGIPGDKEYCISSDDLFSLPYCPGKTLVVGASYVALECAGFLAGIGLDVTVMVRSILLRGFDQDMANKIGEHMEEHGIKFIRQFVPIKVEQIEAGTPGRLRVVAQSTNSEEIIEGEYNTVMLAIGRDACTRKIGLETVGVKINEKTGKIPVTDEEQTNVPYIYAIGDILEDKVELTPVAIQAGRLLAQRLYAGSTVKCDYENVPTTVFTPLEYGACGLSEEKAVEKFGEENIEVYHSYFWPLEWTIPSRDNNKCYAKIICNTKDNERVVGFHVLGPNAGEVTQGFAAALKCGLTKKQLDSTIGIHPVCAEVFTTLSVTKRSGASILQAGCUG
Experimental: Working solutions: 0.119 mg/mL of TrxR working solution preparation: 175 μL of TrxR stock solution (0.34 mg/mL) was diluted to 500 μL; 1 mM NADPH working solution preparation, NADPH (5 mg) was dissolved in 12 mL potassium phosphate buffer; 1 mM DTNB working solution preparation: 25 mg DTNB was dissolve in 63 mL DMSO; potassium phosphate buffer system preparation: 0.2 mg/mL bovine serum albumin (BSA) and 1 mM EDTA were added to potassium phosphate buffer at pH 7.4 (K2HPO4/KH2PO4).
Methods: The TrxR1 inhibitory activity study of selenium-containing isoxazolamines in vitro. Insulin, NADPH, Trx, the samples and TrxR1 were added to a microcuvette in order, and subsequently added the work buffer (0.1 mol/L potassium phosphate/2 mmol/L EDTA) to a total volume of 0.5 mL. The concentration of each component in the obtained reaction system is: insulin 130 μmol/L, NADPH […] (Sigma), Trx 4 μmol/L, the added substrate (the selenium-containing isoxazolamines treated samples). After determination of the initial absorption at 340 nm, the enzymatic reaction was started by adding 20 μg extracted TrxR1 proteins, the decrease in absorbance at 340 nm was monitored. One unit of enzymatic activity is defined as the consumption. The activity can be calculated from the extinction coefficient of NADPH, and the unit of enzyme activity is defined as: 1U=ΔA340 nm/min×1000, the TR activity could be calculated with U/L. The results are shown in table 2.

[2] = test system: TNF-α; test: TNF-α activity inhibiting assay: LPS-stimulated peripheral blood, TNF-α by ELISA; format: cell-based, human; conditions: Homo sapiens, LPS 10 ng/mL, 6 hours, diluted peripheral blood from healthy volunteers, read-out: TNF-α inhibition (%)
Experimental: Methods: Peripheral blood from healthy volunteers was collected with EDTA anticoagulant tubes. After being diluted 5-fold with 1640 medium (Gibco, USA), the blood was added to 96-well cell culture plates (Costar, USA) and then treated with 10 μL solution of the compound of general formula (I) of the present invention in DMSO (Sigma, USA), and the final concentration of DMSO was 0.2%. After incubation for 60 minutes in an incubator at 37° C. under 5% CO2, 10 μL LPS (Sigma, USA) was added to the reaction system, and the final concentration was 10 ng/mL. After further culturing for 6 hours in the incubator at 37° C. under 5% CO2, the supernatant was collected. The content of TNF-α was determined by ELISA (BD Biosciences, USA). Absorbance was detected at OD450 nm with a microplate reader, with GD 650 nm as reference. The control, a solution containing 0.2% DMSO medium, was as 0% inhibition. Raw data and standard curves were recorded. The four-parameter drug inhibition curve was plotted by XL-fit software and the inhibition rate of each compound was calculated.

[3] = Glutathione peroxidase (GPx)-like activity assay, coupled NADPH oxidation at 340 nm; format: biochemical; conditions: compound 50 μm, GSH 2.0 mM, pH 7.5, 25° C.; for Initial rate v0, Cum-OOH: peroxide Cum-OOH 1.6 mM; for Initial rate v0, H2O2: peroxide H2O2 1.6 mM; for Initial rate v0, tBuOOH: peroxide tBuOOH 1.6 mM
Experimental: Method: GPX activity of selenium compounds was assayed by ultraviolet spectrophotometry. Glutathione (2.0 mM), EDTA (1 mM), glutathione disulfide reductase (1.7 units mL^−1), and nicotinamide adenine dinucleotide phosphate […] (NADPH; 0.4 mM) were mixed intopotassium phosphate buffer (0.1 M, pH=7.5). The selenium compounds (50 μm) was added to the above mixture At room temperature (25° C.), and the reaction was started by the addition of H2O2, tBuOOH or Cum-OOH (1.6 mM) respectively. The initial reduction rates were calculated from the rate of NADPH oxidation at 340 nm in a GSH assay. Each initial rate was measured at least three times and calculated from the first 5-10% of the reaction by using 6.22 mM^−1 cm^−1 as the molar extinction coefficient for NADPH. For the peroxidase activity, the rates were corrected for the background reaction between peroxide and thiol.

## COc1ccc2[se]n(C3CCC(=O)NC3=O)c(=O)c2c1 (stereo not drawn) [Compound 12]
[1]
  IC50: < 5 µM
[2]
  IC50: 1 to 10 µM
[3]
  Initial rate v0, Cum-OOH: 116.8 ± 7.2 μm min^−1
  Initial rate v0, H2O2: 121.7 ± 2.2 μm min^−1
  Initial rate v0, tBuOOH: 54.5 ± 5.7 μm min^−1

## O=C1c2ccccc2[Se](=O)N1c1nc2ccc(OC(F)(F)F)cc2s1 (stereo not drawn) [Compound 34]
[1]
  IC50: 50 to 100 µM
[2]
  IC50: 10 to 100 µM
[3]
  Initial rate v0, Cum-OOH: 12.4 ± 0.3 μm min^−1
  Initial rate v0, H2O2: 39.7 ± 1.4 μm min^−1
  Initial rate v0, tBuOOH: 14.2 ± 1.1 μm min^−1

## O=C1CCC(n2[se]c3ccccc3c2=O)C(=O)N1 (stereo not drawn) [Compound 1]
[1]
  IC50: 5 to 50 µM
[2]
  IC50: 10 to 100 µM
[3]
  Initial rate v0, Cum-OOH: 124.5 ± 7.6 μm min^−1
  Initial rate v0, H2O2: 109.7 ± 2.1 μm min^−1
  Initial rate v0, tBuOOH: 42.0 ± 3.3 μm min^−1
